This note sets out measurements from PMC10054240, “New Inhibitors of Respiratory Syncytial Virus (RSV) Replication Based on Monoterpene-Substituted Arylcoumarins” (Molecules, 2023).

Data set [1] in a line: Cytotoxicity on non-infected HEp-2 cells, MTT assay. Type of data set: cell-based. As to conditions: human, non-infected HEp-2 cells, CC50 (50% cytotoxic concentration), MTT, 24 h. A general note: Tetrazolium assays rely on reduction of a dye to a coloured formazan, in cell work by metabolically active cells.
Another data set concerns RSV A strain A2. Kind of data set: Antiviral activity against RSV A strain A2 in HEp-2 cells (ELISA virus titer). The class given is cell-based, respiratory syncytial virus. To be noted: for IC50: HEp-2, RSV A, read-out: pIC50 (-lg[IC50]) (converted); for IC50 / pIC50 (-lg[IC50]): from Table 1 values; for pIC50 (-lg[IC50]): RSV A. (In an ELISA, binding on a coated surface is turned into a signal by an enzyme label.)

Where [2] appears, read: human respiratory syncytial virus.
[3] abbreviates: human respiratory syncytial virus, HEp-2, read-out: EC50 (50% effective concentration).
Setting [4] is: read-out: EC50 (50% effective concentration).

Where two headings read alike, the source gives them in different places.

What is called CC50 is the concentration that lowers cell viability or growth by half. A word on the IC50: it is the concentration at which inhibition is half-maximal. As to `CC(C)=CCC/C(C)=C/COc1ccc2c(-c3ccccc3)cc(=O)oc2c1` [Compound 14a], half-maximal cytotoxicity in data set [1] (CC50 at 24 h) was put at 805 ± 97.6 µM. Besides, the “antiviral activity against RSV A (in words)” value in the data set on RSV A strain A2 is “moderate antiviral activity”. Also, the IC50 in the data set with RSV A strain A2 (setting [2]) is 67.6 µM. In addition, in the data set on RSV A strain A2 (setting [3]), the EC50 worked out at 67.3 ± 9.1 µM.
In data set [1], `CC1(C)C2CC=C(CCOc3ccc4c(-c5ccccc5)cc(=O)oc4c3)C1C2` (centres unmarked) [Compound 14d] gave a CC50 at 24 h of 657 ± 20.4 µM. In addition, in the data set on RSV A strain A2, the “SI (selective index)” value was determined as 7.9. Further, the IC50 with RSV A strain A2 (setting [2]) was 83.2 µM. Moreover, the EC50 in the data set with RSV A strain A2 (setting [3]) was found to be 82.5 ± 10.3 µM.
In data set [1], `CC1(C)[C@H]2CC=C(CCCCOc3ccc4c(-c5ccccc5)cc(=O)oc4c3)[C@@H]1C2` [Compound 14f, 7-(4-((1R,5S)-6,6-Dimethylbicyclo[3.1.1]hept-2-en-2-yl)butoxy)-4-phenyl-2H-chromen-2-one] returned a CC50 at 24 h of 1270 ± 180 µM. In addition, in the data set with RSV A strain A2, the “SI (selective index)” value is listed as 11.4. Moreover, the IC50 with RSV A strain A2 (setting [2]) was 112 µM. Moreover, the EC50 with RSV A strain A2 (setting [3]) came out at 111 ± 10.5 µM.
The matching figures for `CC(C)=CCC/C(C)=C/COc1ccc2c(-c3ccc(Br)cc3)cc(=O)oc2c1` [Compound 15a]: 8.8 ± 0.5 µM, 1, 8.91 µM and 8.8 ± 0.7 µM.
Take `CC1(C)C2CC=C(COc3ccc4c(-c5ccc(Br)cc5)cc(=O)oc4c3)C1C2` (centres unmarked) [Compound 15b]: the 50% cytotoxic concentration (CC50) at 24 h in data set [1] was found to be 46.6 ± 8.6 µM. In the data set on RSV A strain A2, the “SI (selective index)” value was determined as 3 and the “pIC50 (-lg[IC50])” value was 4.82. The EC50 in the data set on RSV A strain A2 (setting [4]) was 15.1 ± 1.1 µM.
On to `CC1(C)C2CC=C(CCOc3ccc4c(-c5ccc(Br)cc5)cc(=O)oc4c3)C1C2` (centres unmarked) [Compound 15d], for which it took 17.2 ± 2.6 µM to reach half-maximal cytotoxicity in data set [1] (CC50 at 24 h). In addition, in the data set with RSV A strain A2, the “SI (selective index)” value is less than 0.8 and the “pIC50 (-lg[IC50])” value was 4.70. Further, the concentration for half-maximal inhibition (IC50) in the data set on RSV A strain A2 (setting [2]) was greater than 20 µM. Also, the EC50 in the data set on RSV A strain A2 (setting [3]) was greater than 20 µM.
`CC1(C)[C@H]2CC=C(CCCOc3ccc4c(-c5ccc(Br)cc5)cc(=O)oc4c3)[C@@H]1C2` [Compound 15e, 4-(4-Bromophenyl)-7-(3-((1R,5S)-6,6-dimethylbicyclo[3.1.1]hept-2-en-2-yl)propoxy)-2H-chromen-2-one] registered a CC50 at 24 h in data set [1] of 12.5 ± 1.4 µM. Also, in the data set on RSV A strain A2, the “SI (selective index)” value was less than 1 and the “pIC50 (-lg[IC50])” value is recorded as 4.90. In addition, in the data set with RSV A strain A2 (setting [2]), the 50% inhibitory concentration (IC50) was greater than 12.6 µM. Also, in the data set with RSV A strain A2 (setting [3]), the EC50 was greater than 12.5 µM.
Take `CC1(C)[C@H]2CC=C(CCCCOc3ccc4c(-c5ccc(Br)cc5)cc(=O)oc4c3)[C@@H]1C2` [Compound 15f, 4-(4-Bromophenyl)-7-(4-((1R,5S)-6,6-dimethylbicyclo[3.1.1]hept-2-en-2-yl)butoxy)-2H-chromen-2-one]: in data set [1], the CC50 at 24 h came out at 91.3 ± 9.2 µM. For the same compound, the IC50 in the data set with RSV A strain A2 (setting [2]) is 9.55 µM. In addition, in the data set on RSV A strain A2 (setting [3]), the EC50 worked out at 9.5 ± 0.8 µM.
In data set [1], `O=c1cc(-c2ccc(Br)cc2)c2ccc(OCc3ccccc3)cc2o1` [Compound 15g] returned a half-maximal cytotoxic concentration (CC50) at 24 h of 265 ± 29.5 µM. Besides, the “SI (selective index)” value in the data set on RSV A strain A2 came to 3.2. Moreover, the concentration for half-maximal inhibition (IC50) with RSV A strain A2 (setting [2]) was 83.2 µM. For the same compound, the EC50 in the data set with RSV A strain A2 (setting [3]) amounted to 84 ± 3 µM.
For `CC(C)=CCC/C(C)=C/COc1ccc2c(-c3ccc(F)cc3)cc(=O)oc2c1` [Compound 16a], the midpoint of cytotoxicity in data set [1], the CC50 at 24 h, lay at 273 ± 16 µM. Further, in the data set with RSV A strain A2, the “SI (selective index)” value came out at 5.8. In addition, in the data set on RSV A strain A2 (setting [2]), the IC50 is 47.9 µM. Moreover, in the data set on RSV A strain A2 (setting [3]), the EC50 came out at 47.4 ± 8 µM.
The matching figures for `CC1(C)[C@H]2CC=C(CCCOc3ccc4c(-c5ccc(F)cc5)cc(=O)oc4c3)[C@@H]1C2` [Compound 16e, 7-(3-((1R,5S)-6,6-Dimethylbicyclo[3.1.1]hept-2-en-2-yl)propoxy)-4-(4-fluorophenyl)-2H-chromen-2-one]: 996 ± 8.2 µM, 9, 110 µM and 110 ± 10.4 µM.
In data set [1], `CC1(C)[C@H]2CC=C(CCCCOc3ccc4c(-c5ccc(F)cc5)cc(=O)oc4c3)[C@@H]1C2` [Compound 16f, 7-(4-((1R,5S)-6,6-Dimethylbicyclo[3.1.1]hept-2-en-2-yl)butoxy)-4-(4-fluorophenyl)-2H-chromen-2-one] showed a cytotoxic concentration (CC50) at 24 h of 109 ± 10.5 µM. Also, in the data set on RSV A strain A2, the “SI (selective index)” value is given as 11.8. Besides, the IC50 with RSV A strain A2 (setting [2]) was 9.33 µM. The EC50 in the data set with RSV A strain A2 (setting [3]) amounted to 9 µM; in the data set with RSV A strain A2 (setting [4]), 9.2 ± 1.1 µM.
